Values quoted from earlier work as cited in US11213539B2, “Use of ivermectin and brimonidine in the treatment and/or prevention of moderate to severe rosacea” (GALDERMA HOLDING SA, priority 2015, dated 2022).

Test system: patients treated with brimonidine 0.33% gel
Details: brimonidine used alone; in a number of patients, in particular worsening of erythema (rebound)

Brc1c(NC2=NCCN2)ccc2nccnc12 [brimonidine]
related adverse effects: excessive
